Reference: patent US20240173432A1, “Compositions and Methods for Treatment of Myotonic Dystrophy Type 1 with CRISPR/SluCas9” (Vertex Pharmaceuticals Incorporated, priority 2021, published 2024)

How the values were obtained:
[1] = tested on: CUG foci in primary DM1 patient myoblasts; experiment: Single-cut screening: FISH staining of CUG RNA foci; assay type: cell-based, human; settings: single sgRNA, primary DM1 patient myoblasts; for % of CUG foci free nuclei (DNA-PKi): DNA-PKi treated
In short: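 CD56-purified primary DM1 patient myoblasts nucleofected with SluCas9:sgRNA RNP (30:90 pmol, single-cut), then DMSO or 3 μM DNA-PK inhibitor for 48 h. At 72 h post-nucleofection, cells fixed and stained for CUG foci with Cy3-PNA(CAG)5 probe (1 ng/μL, 80 °C), co-stained for MBNL1 and Hoechst, imaged by high-content confocal microscopy.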

[2] = tested on: 3′ UTR of the human DMPK gene; experiment: Single-cut screening: indel editing efficiency by Sanger sequencing and ICE analysis in primary DM1 patient myoblasts; assay type: cell-based; settings: vehicle-treated samples; for Indel efficiency: single SluCas9 sgRNA RNP in primary DM1 patient myoblasts, Sanger sequencing and ICE analysis; for indel efficiency (Sanger sequencing and ICE analysis): single-cut, SluCas9 RNP, 72 hrs post nucleofection, wild-type allele
In short: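 Indels were estimated by ICE from Sanger chromatograms of PCR amplicons covering the DMPK 3′ UTR wild-type allele, using only vehicle-treated samples; sgRNAs with R2<0.9 are flagged. Samples came from primary DM1 patient myoblasts (2 × 10^5) harvested 72 h after nucleofection with 30 pmol SluCas9 and 90 pmol single sgRNA RNP.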

[3] = tested on: CAG foci in primary DM1 patient myoblasts; experiment: Single-cut screening: CAG foci staining; assay type: cell-based, human; settings: single sgRNA; for % of CAG foci positive nuclei (DNA-PKi): DNA-PKi treated
In short: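 Primary DM1 patient myoblasts were PFA-fixed and hybridized with […] (1 ng/μL, 15 min at 80° C) in 30% formamide/2×SSC, followed by anti-MBNL1 immunostaining and Hoechst counterstain. CAG RNA foci were quantified by high-content confocal imaging after single-cut SuCas9 sgRNA editing.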

Substance | % of CUG foci free nuclei (DNA-PKi) [1] [%] | % of CUG foci free nuclei (Vehicle) [1] [%] | Indel efficiency [2] [%] | % of CAG foci positive nuclei (DNA-PKi) [3] [%] | % of CAG foci positive nuclei (Vehicle) [3] [%] | indel efficiency (Sanger sequencing and ICE analysis) [2]
AACCAACGATAGGTGGGGGTGC (guide RNA; chemistry not fully specified) [SluD24] | 22.99 | 17.65 | 27 | 1.68 | 2.75 | –
ATAAATATCCAAACCGCCGAAG (guide RNA; chemistry not fully specified) [SluD63] | 19.22 | 9.09 | 6 | 2.95 | 0.85 | –
GAGAGCAGCGCAAGTGAGGAGG (listed as DNA, chemistry not fully specified) [SluD48] | 25.41 | 13.31 | 60 | 2.91 | 2.3 | high editing IN4DEL efficiency
TCGCGCCAGACGCTCCCCAGAG (guide RNA; chemistry not fully specified) [SluD35] | 12.47 | 6.61 | 0 | 1.13 | 1.04 | –
gccgggtccgcggccggcgaac (GCCGGGTCCGCGGCCGGCGAAC; guide RNA; chemistry not fully specified) [SluU57] | 52.65 | 18.03 | 17 | 1.77 | 1.54 | –
AGCGCAAGTGAGGAGGGGGGCG (guide RNA; chemistry not fully specified) [SluD45] | 32.39 | 7.51 | 8 | 1.16 | 1.17 | –
AAAACGTGGATTGGGGTTGTTG (guide RNA; chemistry not fully specified) [SluD71] | 23.51 | 9.75 | 23 | 2.27 | 1.38 | –
CCAGGCTGAGGCCCTGACGTGG (listed as DNA, chemistry not fully specified) [SluD06] | 23.09 | 24.51 | 55 | 1.35 | 3.12 | high editing IN4DEL efficiency
GCCCCGGAGTCGAAGACAGTTC (guide RNA; chemistry not fully specified) [SluU05] | 61.16 | 26.37 | 65 | 1.64 | 1.53 | –
GATCACAGACCATTTCTTTCTT (guide RNA; chemistry not fully specified) [SluD01] | 17.29 | 18.45 | 0 | 1.34 | 0.79 | –
CCAGTTCACAACCGCTCCGAGC (guide RNA; chemistry not fully specified) [SluU22] | 50.21 | 27.56 | 41 | 1.28 | 0.96 | –
CCTGCAGTTTGCCCATCCACGT (guide RNA; chemistry not fully specified) [SluD11] | 52.55 | 14.54 | 16 | 2.22 | 1.7 | –
cggcccctccctccccggccGC (guide RNA; as printed in the source, key not given here) [SluU51] | 46.88 | 8.62 | 28 | 1.6 | 0.72 | –
ccccggccGCTAGGGGGCGGGC (guide RNA; as printed in the source, key not given here) [SluU39] | 36.78 | 10.53 | 11 | 2.5 | 0.71 | –
CCATCCACGTCAGGGCCTCAGC (guide RNA; chemistry not fully specified) [SluD08] | 48.28 | 27.09 | 45 | 1.22 | 5 | –
tccctccccggccGCTAGGGGG (guide RNA; as printed in the source, key not given here) [SluU43] | 28.61 | 7.64 | 5 | 1.76 | 1.02 | –
GGGGCGCGGGATCCCCGAAAAA (guide RNA; chemistry not fully specified) [SluD44] | 36.44 | 8.05 | 24 | 2.29 | 1.49 | –
TCCGGGCCCGCCCCCTAGCggc (guide RNA; as printed in the source, key not given here) [SluU36] | 40.62 | 11.72 | 24 | 1.96 | 1.05 | –
